This passage reports inhibition in vivo results from patent US8551981B2, “Furo[3,2-d]pyrimidine compounds” (AbbVie Inc., priority 2010, dated 2013).

In general, inhibition in vivo refers to the change of the read-out against control, counted positive when it falls.

The assay relates to Fcγ receptor signaling. The assay can be described thus: Reverse Passive Arthus model. It counts as in vivo. The note with it: Rattus norvegicus, single dose 10 mg/kg. Here is the method: Acute in vivo measurement of Fcγ receptor signaling inhibition of the compounds is measured using the:
Reverse Passive Arthus Model
On day 0 OVA was made up at a concentration of 17 mg/mL, in PBS by rocking gently until a solution was formed. 2% Evans Blue solution (Sigma Aldrich, cat# E2129) was then added to double the volume for a final concentration of 8.5 mg/mL of OVA and 1% Evans Blue dye. Anti-OVA antibody (Abazyme), stock concentration 10 mg/mL, was thawed and a 4 mg/mL solution was made with PBS. Compounds were made up in 0.5% HPMC with 0.02% Tween 80, and vortexed for about 15 seconds followed by homogenization for a minimum of about 2 min at 28,000 RPM until there was a fine particulate suspension with no clumps of compound. Rats were weighed and dosed with compound at a pre-determined time based on compound Tmax determined in pharmacokinetic studies. Animals were then placed under general anesthesia with a 5% isoflourane and oxygen mixture and shaved. Using a 0.5 cc insulin syringe two sites were injected i.d., 1 site with 100 μL of 4.0 mg/mL of anti-OVA antibody, and 1 site with 100 μL of sterile PBS. Each injection site was circled with a permanent marker to mark the site. Immediately following i.d. injections, animals were injected with 200 μL of the OVA (10 mg/kg)/1% Evans Blue mixture, i.v., using a 0.5 cc insulin syringe. About 4 h post injection animals were euthanized, bled via cardiac puncture and blood was put into plasma separation tubes. Blood samples were stored on ice until centrifugation (within about 2 h of collection). Each injection site was removed with a disposable biopsy punch (Acuderm Acu-Punch Disposable 12 mm), cut into four pieces and placed in a pre-labeled 2 mL eppendorf tube. One mL of DMF (99%) was added to each biopsy tube and they were placed in a heat block at about 50° C. for about 24 h. After incubation, 100 μL of each sample was transferred to a 96 well flat bottom plate and read at 620 nm on a plate reader using the Softmax software. Background was removed by subtracting the OD from the PBS injected site from the OD of the anti-OVA injected site for each individual animal. Plasma samples were spun down in a microcentrifuge (Eppendorf 5415R) for about 5 min at 16.1 rcf. 200 μL of plasma was placed in a 1.7 mL eppendorf tube for drug level measurements and tubes were stored at about −80° C. until evaluation.

Regarding `Clc1cc(Nc2nc(NC3CCC3)c3occc3n2)ccc1N1CCOCC1` [B.5.2], the inhibition in vivo at 10 mg/kg turned out to be 55%.

As for `Cn1ncc2cc(Nc3nc(NC4CC4)c4occc4n3)ccc21` [B.5.8], the inhibition in vivo at 10 mg/kg is 49%.

As for `FC(F)(F)CNc1nc(Nc2ccc(N3CCOCC3)c(Cl)c2)nc2ccoc12` [B.5.13], the inhibition in vivo at 10 mg/kg amounted to 17%.

In the case of `O=C1Nc2cc(Nc3nc(NC4CC4)c4occc4n3)ccc2OC1(F)F` [B.5.40], the inhibition in vivo at 10 mg/kg was found to be 3%.

Consider `CC1(C)Cc2ccc(Nc3nc(NC4CC4)c4occc4n3)cc2NC1=O` [B.5.41], for which the inhibition in vivo at 10 mg/kg amounted to 42%.

In the case of `CC(C)(C#N)c1ccc(Nc2nc(NC3CC3)c3occc3n2)cc1` [B.5.42], the inhibition in vivo at 10 mg/kg worked out at 27%.

With `O=c1[nH]c2cc(Nc3nc(NC4CC4)c4occc4n3)ccc2cc1CO` [B.5.50], the inhibition in vivo at 10 mg/kg stood at 0%.

Take `O=c1ccc2ccc(Nc3nc(NC4CC4)c4occc4n3)cc2o1` [B.5.52]: the inhibition in vivo at 10 mg/kg was found to be 0%.

On to `O=C1CCCc2cc(Nc3nc(NC4CC4)c4occc4n3)ccc2N1` [B.5.56], for which the inhibition in vivo at 10 mg/kg is 49%.

For the molecule `CC1(C)C(=O)Nc2cc(Nc3nc(N4CCC(CNCC(F)F)CC4)c4occc4n3)ccc21` [B.5.60], the inhibition in vivo at 10 mg/kg is 10%.

`CC1(C)C(=O)Nc2cc(Nc3nc(N[C@@H]4[C@H](C(N)=O)[C@H]5C=C[C@@H]4C5)c4occc4n3)ccc21` [B.5.61]: the inhibition in vivo at 10 mg/kg is 1%.

`CC1(C)Oc2ccc(Nc3nc(Nc4ccc5c(c4)NC(=O)C(C)(C)O5)c4occc4n3)cc2NC1=O` [B.5.62]: the inhibition in vivo at 10 mg/kg is 16%.

In the case of `CC1(C)Oc2ccc(Nc3nc(N4CCC(CNCCS(C)(=O)=O)CC4)c4occc4n3)cc2NC1=O` [B.5.65], the inhibition in vivo at 10 mg/kg is 9%.

`CC1(C)C(=O)Nc2cc(Nc3nc(N4CCC(CNCCS(C)(=O)=O)CC4)c4occc4n3)ccc21` [B.5.68]: the inhibition in vivo at 10 mg/kg amounted to 1%.

On to `CC1(C)C(=O)Nc2cc(Nc3nc(N4CCC(CNCCF)CC4)c4occc4n3)ccc21` [B.5.77], for which the inhibition in vivo at 10 mg/kg came to 20%.

Regarding `CC(C)CNc1nc(Nc2ccc3c(c2)NC(=O)C3(C)C)nc2ccoc12` [B.5.80], the inhibition in vivo at 10 mg/kg was 46%.

For the molecule `CCCNc1nc(Nc2ccc3c(c2)NC(=O)C3(C)C)nc2ccoc12` [B.5.81], the inhibition in vivo at 10 mg/kg turned out to be 16%.

Take `O=C1COc2ccc(Nc3nc(N4CCC(CNCC(F)F)CC4)c4occc4n3)cc2N1` [B.5.84]: the inhibition in vivo at 10 mg/kg is 38%.

Consider `FC(F)CNCC1CCN(c2nc(Nc3ccc(N4CCOCC4)c(Cl)c3)nc3ccoc23)CC1` [B.5.85], for which the inhibition in vivo at 10 mg/kg amounted to 52%.

On to `Cc1cc2ccc(Nc3nc(NC4CC4)c4occc4n3)cc2[nH]c1=O` [B.5.99], for which the inhibition in vivo at 10 mg/kg stood at 16%.

Consider `CC1(C)C(=O)Nc2cc(Nc3nc(NC4CCC4)c4occc4n3)ccc21` [B.5.108], for which the inhibition in vivo at 10 mg/kg is 56%.

For `CNCC1CCN(c2nc(Nc3ccc(N4CCN(C(C)=O)CC4)cc3)nc3ccoc23)CC1` [C.1.2], the inhibition in vivo at 10 mg/kg was -17%.

`CC(=O)N(C)c1ccc(Nc2nc(N3CCC(CN)CC3)c3occc3n2)cc1` [C.1.7]: the inhibition in vivo at 10 mg/kg was determined as 22%.

With `CCCC(=O)Nc1ccc(Nc2nc(N3CCC(CN)CC3)c3occc3n2)cc1` [C.1.8], the inhibition in vivo at 10 mg/kg came to 0%.

`CNCC1CCN(c2nc(Nc3ccc4cn[nH]c4c3)nc3ccoc23)CC1` [C.1.23]: the inhibition in vivo at 10 mg/kg is -15%.

As to `Cc1n[nH]c2cc(Nc3nc(N4CCCC(N)CC4)c4occc4n3)ccc12` (stereo not shown) [C.1.29], the inhibition in vivo at 10 mg/kg was -5%.

For `Cc1n[nH]c2cc(Nc3nc(N4CCC(C)(CN)CC4)c4occc4n3)ccc12` [C.1.31], the inhibition in vivo at 10 mg/kg was 0%.

Regarding `CC1(CN)CCN(c2nc(Nc3ccc4c(c3)NC(=O)C4(C)C)nc3ccoc23)CC1` [C.1.32], the inhibition in vivo at 10 mg/kg was found to be 8%.

In the case of `CC1(CN)CCN(c2nc(Nc3ccc4c(c3)NC(=O)C(C)(C)O4)nc3ccoc23)CC1` [C.1.33], the inhibition in vivo at 10 mg/kg was determined as 30%.

Regarding `CC1(C)Oc2ccc(Nc3nc(N4CCC5(CCCNC5)C4)c4occc4n3)cc2NC1=O` (stereo not shown) [C.1.36], the inhibition in vivo at 10 mg/kg was -31%.

Regarding `CC1(C)C(=O)Nc2cc(Nc3nc(N4CCC5(CCCNC5)CC4)c4occc4n3)ccc21` [C.1.37], the inhibition in vivo at 10 mg/kg was -5%.

On to `COc1cc(Nc2nc(N3CCC4(CCCNC4)CC3)c3occc3n2)ccc1N1CCOCC1` [C.1.39], for which the inhibition in vivo at 10 mg/kg amounted to 44%.

With `Cn1ncc2cc(Nc3nc(N4CCC5(CCNC5)CC4)c4occc4n3)ccc21` [C.1.40], the inhibition in vivo at 10 mg/kg was found to be 40%.

`Clc1cc(Nc2nc(N3CCC4(CCCNC4)CC3)c3occc3n2)ccc1N1CCOCC1` [C.1.41]: the inhibition in vivo at 10 mg/kg came to 40%.

`Cn1ncc2cc(Nc3nc(N4CCC5(CCCNC5)CC4)c4occc4n3)ccc21` [C.1.43]: the inhibition in vivo at 10 mg/kg turned out to be 56%.

In the case of `Clc1cc(Nc2nc(N3CCC4(CCNC4)CC3)c3occc3n2)ccc1N1CCOCC1` [C.1.44], the inhibition in vivo at 10 mg/kg was found to be 54%.

Regarding `CNCC1CCN(c2nc(Nc3ccc4c(C)n[nH]c4c3)nc3ccoc23)CC1` [C.1.48], the inhibition in vivo at 10 mg/kg amounted to 1%.

For `CNCC1CCN(c2nc(Nc3ccc4c(cnn4C)c3)nc3ccoc23)CC1` [C.1.49], the inhibition in vivo at 10 mg/kg was -20%.

As to `CNCC1CCN(c2nc(Nc3ccc4c(c3)NC(=O)C4(C)C)nc3ccoc23)CC1` [C.1.51], the inhibition in vivo at 10 mg/kg was -7%.

In the case of `Cc1n[nH]c2cc(Nc3nc(N[C@@H]4[C@H](C(N)=O)[C@H]5C=C[C@@H]4C5)c4occc4n3)ccc12` [C.1.52], the inhibition in vivo at 10 mg/kg was found to be 8%.

Take `CNCC1CCN(c2nc(Nc3ccc(C(C)(C)C#N)cc3)nc3ccoc23)CC1` [C.1.57]: the inhibition in vivo at 10 mg/kg is 12%.

`CC1(C)Oc2ccc(Nc3nc(N4CCC5(CCNC5)CC4)c4occc4n3)cc2NC1=O` [C.1.58]: the inhibition in vivo at 10 mg/kg was -18%.

Regarding `CC1(C)Oc2ccc(Nc3nc(N4CCC5(CCCNC5)CC4)c4occc4n3)cc2NC1=O` [C.1.59], the inhibition in vivo at 10 mg/kg amounted to 20%.

For the molecule `Cc1n[nH]c2cc(Nc3nc(N4CCC(CNCCS(C)(=O)=O)CC4)c4occc4n3)ccc12` [C.1.60], the inhibition in vivo at 10 mg/kg amounted to 24%.

For `NCC1CCN(c2nc(Nc3ccc4c(c3)NC(=O)CC4)nc3ccoc23)CC1` [C.1.61], the inhibition in vivo at 10 mg/kg stood at 20%.

`CC(N)C1CCN(c2nc(Nc3ccc4c(c3)NC(=O)C(C)(C)O4)nc3ccoc23)CC1` (stereo not shown) [C.1.62]: the inhibition in vivo at 10 mg/kg was -6%.

Regarding `CNCC1CCN(c2nc(Nc3ccc4c(c3)NC(=O)C(C)(C)S4)nc3ccoc23)CC1` [C.1.71], the inhibition in vivo at 10 mg/kg was 85%.

Consider `O=C(NC1CC1)c1n[nH]c2cc(Nc3nc(NC4CC4)c4occc4n3)ccc12` [E.2.1, N-Cyclopropyl-6-(4-(cyclopropylamino)furo[3,2-d]pyrimidin-2-ylamino)-1H-indazole-3-carboxamide], for which the inhibition in vivo at 10 mg/kg is -1%.

As to `Cc1n[nH]c2cc(Nc3nc(NC4CC4)c4occc4n3)ccc12` [Example #3, N^4-Cyclopropyl-N^2-(3-methyl-1H-indazol-6-yl)furo[3,2-d]pyrimidine-2,4-diamine], the inhibition in vivo at 10 mg/kg was determined as 75%.

Regarding `CC1Cc2ccc(Nc3nc(NC4CC4)c4occc4n3)cc2NC1=O` (stereo not shown) [Example #6, 7-(4-(Cyclopropylamino)furo[3,2-d]pyrimidin-2-ylamino)-3-methyl-3,4-dihydroquinolin-2(1H)-one], the inhibition in vivo at 10 mg/kg was found to be 59%.

For the molecule `O=C1CCc2ccc(Nc3nc(NC4CC4)c4occc4n3)cc2N1` [Example #7, 7-(4-(Cyclopropylamino)furo[3,2-d]pyrimidin-2-ylamino)-3,4-dihydroquinolin-2(1H)-one], the inhibition in vivo at 10 mg/kg is 73%.

Turning to `CC1(C)C(=O)Nc2cc(Nc3nc(NC4CC4)c4occc4n3)ccc21` [Example #11, 6-(4-(Cyclopropylamino)furo[3,2-d]pyrimidin-2-ylamino)-3,3-dimethylindolin-2-one], the inhibition in vivo at 10 mg/kg was 65%.

For the molecule `CC1(CN)CCN(c2nc(Nc3ccc4cn[nH]c4c3)nc3ccoc23)CC1` [Example #12, 4-(4-(Aminomethyl)-4-methylpiperidin-1-yl)-N-(1H-indazol-6-yl)furo[3,2-d]pyrimidin-2-amine], the inhibition in vivo at 10 mg/kg turned out to be 8%.

On to `FC(F)(F)CNc1nc(Nc2ccc3cn[nH]c3c2)nc2ccoc12` [Example #13, N^2-(1H-Indazol-6-yl)-N^4-(2,2,2-trifluoroethyl)furo[3,2-d]pyrimidine-2,4-diamine], for which the inhibition in vivo at 10 mg/kg came to 70%.

Turning to `c1cc2nc(Nc3ccc4cn[nH]c4c3)nc(NC3CC3)c2o1` [Example #15, N^4-Cyclopropyl-N^2-(1H-indazol-6-yl)furo[3,2-d]pyrimidine-2,4-diamine], the inhibition in vivo at 10 mg/kg is 45%.
